Source: PubChem BioAssay AID342 (DTP/NCI, 2004)
Values joined by “and” are separate entries in the source; they are usually repeats but may differ in a detail not shown here. Identical values can stand only once.

Tested on: Swiss mice, Sarcoma 180 sc, mean tumor weight T/C
Experiment: NCI In Vivo Anticancer Drug Screen. Data for tumor model Sarcoma 180 (subcutaneous) in Swiss mice
Settings: endpoint: mean tumor weight, higher = larger tumour
Procedure, shortened: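 Antitumor activity is assessed in mice with transplantable tumors. Treated (T) and vehicle control (C) groups are compared on survival or tumor size.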

[1] = dose: 25.0 mg/kg/injection, schedule: Q01DX007 (ip), vehicle: saline
[2] = dose: 50.0 mg/kg/injection, schedule: Q01DX007 (ip), vehicle: carboxymethylcellulose (CMC)
[3] = dose: 125.0 mg/kg/injection, schedule: Q01DX007 (ip), vehicle: carboxymethylcellulose (CMC)

For `CC(=O)Nc1c(Cl)c(Cl)c2c(c1Cl)Cc1cc(F)ccc1-2`, the T/C (dose: 62.5 mg/kg/injection, schedule: Q01DX007 (ip), vehicle: saline) was 78 % of control, the T/C (dose: 111.0 mg/kg/injection, schedule: Q01DX007 (ip), vehicle: other) was 24 % of control and the T/C (dose: 111.0 mg/kg/injection, schedule: Q#A X014 (ip), vehicle: saline) was 31 % of control and 34 % of control. For the same compound, the T/C (dose: 125.0 mg/kg/injection, schedule: Q01DX007 (ip), vehicle: saline) was 81 % of control, the T/C (dose: 166.5 mg/kg/injection, schedule: Q#A X014 (ip), vehicle: saline) was 28 % of control and 31 % of control and the T/C (dose: 250.0 mg/kg/injection, schedule: Q#A X014 (ip), vehicle: saline) was 18 % of control and 35 % of control. For the same compound, the T/C (dose: 333.0 mg/kg/injection, schedule: Q01DX007 (ip), vehicle: other) was 36 % of control, the T/C (dose: 375.0 mg/kg/injection, schedule: Q#A X014 (ip), vehicle: saline) was 21 % of control and the T/C (dose: 500.0 mg/kg/injection, schedule: Q01DX007 (ip), vehicle: other) was 39 % of control. The T/C (dose: 750.0 mg/kg/injection, schedule: Q01DX007 (ip), vehicle: other) was 32 % of control.

For `Nc1ncnc2c1ncn2C1OC(COCc2ccccc2)C(OCc2ccccc2)C1OCc1ccccc1` (stereo not drawn), the T/C (dose: 10.0 mg/kg/injection, schedule: Q01DX007 (ip), vehicle: saline) was 88 % of control, the T/C (dose: 20.0 mg/kg/injection, schedule: Q01DX007 (ip), vehicle: saline) was 86 % of control and 107 % of control and the T/C (dose: 40.0 mg/kg/injection, schedule: Q01DX007 (ip), vehicle: saline) was 64 % of control and 87 % of control. For the same compound, the T/C (dose: 160.0 mg/kg/injection, schedule: Q01DX007 (ip), vehicle: saline) was 99 % of control.

In the case of `CN(CC(=O)O)C(=N)N`, the T/C (dose: 1500.0 mg/kg/injection, schedule: Q#A X014 (ip), vehicle: water) was 92 % of control and the T/C (dose: 2500.0 mg/kg/injection, schedule: Q#A X014 (ip), vehicle: water) was 74 % of control.

For `C[C@@H]1C[C@](O)([C@@H](C)Cl)C(=O)O[C@@H]2CCN3CC=C(COC(=O)[C@]1(C)O)[C@H]23`, the T/C [1] was 74 % of control.

With `Cc1cc(C)c(N)c(C)c1N` the T/C (dose: 187.5 mg/kg/injection, schedule: Q#A X014 (ip), vehicle: methylcellulose (MC)) was 48 % of control.

With `CCCCCCCCCCCCCC1=C(O)C(=O)C(CC2=C(O)C(=O)C(CCCCCCCCCCCCC)=C(O)C2=O)=C(O)C1=O` the T/C [2] was 66 % of control and 80 % of control, the T/C (dose: 100.0 mg/kg/injection, schedule: Q01DX007 (ip), vehicle: carboxymethylcellulose (CMC)) was 73 % of control and the T/C (dose: 200.0 mg/kg/injection, schedule: Q01DX007 (ip), vehicle: carboxymethylcellulose (CMC)) was 101 % of control.

In the case of `CN(C)[C@@H]1C(=O)C(C(=O)NCNC2(C(=O)O)CCCC2)=C(O)[C@@]2(O)C(=O)C3=C(O)c4c(O)cccc4[C@@](C)(O)[C@H]3C[C@@H]12`, the T/C [1] was 103 % of control, the T/C (dose: 50.0 mg/kg/injection, schedule: Q01DX007 (ip), vehicle: saline) was 67 % of control and the T/C (dose: 62.0 mg/kg/injection, schedule: Q01DX007 (ip), vehicle: saline) was 103 % of control. For the same compound, the T/C (dose: 75.0 mg/kg/injection, schedule: Q01DX007 (ip), vehicle: saline) was 41 % of control.

`CC(=O)OCC(=O)[C@@]1(O)[C@H](C)C[C@H]2[C@@H]3C=C(C)C4=Cc5c(cnn5-c5ccc(F)cc5)C[C@]4(C)[C@H]3[C@@H](O)C[C@@]21C` was tested, and the T/C (dose: 0.44 mg/kg/injection, schedule: Q01DX007 (sc), vehicle: steriod suspending solution) was 108 % of control, the T/C (dose: 0.66 mg/kg/injection, schedule: Q01DX007 (sc), vehicle: steriod suspending solution) was 85 % of control and the T/C (dose: 2.25 mg/kg/injection, schedule: Q01DX007 (sc), vehicle: steriod suspending solution) was 23 % of control and 34 % of control. The T/C (dose: 3.38 mg/kg/injection, schedule: Q01DX007 (sc), vehicle: steriod suspending solution) was 37 % of control and 44 % of control and 62 % of control, the T/C (dose: 5.07 mg/kg/injection, schedule: Q01DX007 (sc), vehicle: steriod suspending solution) was 26 % of control and 49 % of control and the T/C (dose: 7.61 mg/kg/injection, schedule: Q01DX007 (sc), vehicle: steriod suspending solution) was 24 % of control. The T/C (dose: 11.42 mg/kg/injection, schedule: Q01DX007 (sc), vehicle: steriod suspending solution) was 24 % of control.

With `CC1(C)O[C@@H]2C[C@H]3[C@@H]4CCC5=CC(=O)C=C[C@]5(C)[C@@]4(F)[C@@H](O)C[C@]3(C)[C@]2(C(=O)CO)O1` the T/C (dose: 1.1 mg/kg/injection, schedule: Q#A X014 (sc), vehicle: steriod suspending solution) was 41 % of control and 57 % of control, the T/C (dose: 1.65 mg/kg/injection, schedule: Q#A X014 (sc), vehicle: steriod suspending solution) was 33 % of control and 34 % of control and the T/C (dose: 2.5 mg/kg/injection, schedule: Q#A X014 (sc), vehicle: steriod suspending solution) was 20 % of control and 26 % of control. For the same compound, the T/C (dose: 3.75 mg/kg/injection, schedule: Q#A X014 (sc), vehicle: steriod suspending solution) was 22 % of control.

With `ClCc1c2ccccc2c(CCl)c2ccccc12` the T/C (dose: 0.25 mg/kg/injection, schedule: Q01DX007 (ip), vehicle: methylcellulose (MC)) was 95 % of control, the T/C (dose: 0.5 mg/kg/injection, schedule: Q01DX007 (ip), vehicle: methylcellulose (MC)) was 89 % of control and the T/C (dose: 1.0 mg/kg/injection, schedule: Q01DX007 (ip), vehicle: methylcellulose (MC)) was 122 % of control. For the same compound, the T/C (dose: 1.5 mg/kg/injection, schedule: Q01DX007 (ip), vehicle: methylcellulose (MC)) was 72 % of control, the T/C (dose: 1.8 mg/kg/injection, schedule: Q01DX007 (ip), vehicle: other) was 22 % of control and the T/C (dose: 1.8 mg/kg/injection, schedule: Q01DX007 (ip), vehicle: saline) was 113 % of control. For the same compound, the T/C (dose: 2.0 mg/kg/injection, schedule: Q01DX007 (ip), vehicle: methylcellulose (MC)) was 72 % of control, the T/C (dose: 2.6 mg/kg/injection, schedule: Q01DX007 (ip), vehicle: other) was 23 % of control and the T/C (dose: 2.6 mg/kg/injection, schedule: Q01DX007 (ip), vehicle: saline) was 102 % of control. The T/C (dose: 4.0 mg/kg/injection, schedule: Q01DX007 (ip), vehicle: other) was 26 % of control, the T/C (dose: 6.0 mg/kg/injection, schedule: Q01DX007 (ip), vehicle: other) was 17 % of control and the T/C (dose: 9.0 mg/kg/injection, schedule: Q01DX007 (ip), vehicle: saline) was 40 % of control.

In the case of `C1CCCNCC1`, the T/C (dose: 15.5 mg/kg/injection, schedule: Q01DX007 (ip), vehicle: other) was 92 % of control, the T/C (dose: 31.0 mg/kg/injection, schedule: Q01DX007 (ip), vehicle: other) was 69 % of control and the T/C (dose: 62.5 mg/kg/injection, schedule: Q01DX007 (ip), vehicle: other) was 103 % of control. For the same compound, the T/C (dose: 125.0 mg/kg/injection, schedule: Q01DX007 (ip), vehicle: other) was 69 % of control and the T/C (dose: 200.0 mg/kg/injection, schedule: Q01DX007 (ip), vehicle: other) was 69 % of control.

With `O=C(Nc1ccc(Sc2ccc(N=Nc3c(O)c(S(=O)(=O)O)cc4cc(S(=O)(=O)O)ccc34)cc2)cc1)c1ccc(N=Nc2ccc3c(S(=O)(=O)O)cccc3c2O)cc1` the T/C (dose: 55.0 mg/kg/injection, schedule: Q01DX007 (ip), vehicle: carboxymethylcellulose (CMC)) was 68 % of control and 78 % of control, the T/C (dose: 84.0 mg/kg/injection, schedule: Q01DX007 (ip), vehicle: carboxymethylcellulose (CMC)) was 72 % of control and 75 % of control and the T/C [3] was 28 % of control. The T/C (dose: 188.0 mg/kg/injection, schedule: Q01DX007 (ip), vehicle: carboxymethylcellulose (CMC)) was 25 % of control.

With `Nc1c(Br)cc2c(c1Br)Cc1cc(Cl)ccc1-2` the T/C (dose: 27.0 mg/kg/injection, schedule: Q01DX007 (ip), vehicle: other) was 52 % of control, the T/C (dose: 41.0 mg/kg/injection, schedule: Q01DX007 (ip), vehicle: other) was 44 % of control and the T/C (dose: 62.0 mg/kg/injection, schedule: Q01DX007 (ip), vehicle: other) was 60 % of control.

For `O=c1[nH]c(=S)c2[nH]c(=O)[nH]c2[nH]1`, the T/C (dose: 50.0 mg/kg/injection, schedule: Q#A X014 (ip), vehicle: methylcellulose (MC)) was 94 % of control, the T/C (dose: 100.0 mg/kg/injection, schedule: Q#A X014 (ip), vehicle: methylcellulose (MC)) was 73 % of control and the T/C (dose: 200.0 mg/kg/injection, schedule: Q#A X014 (ip), vehicle: methylcellulose (MC)) was 101 % of control.

For `[N-]=[N+]=C1N=CN=C1c1ncn[nH]1`, the T/C (dose: 25.0 mg/kg/injection, schedule: Q01DX007 (ip), vehicle: carboxymethylcellulose (CMC)) was 107 % of control and the T/C [2] was 69 % of control.

`CN(C)C1C(=O)C(C(N)=O)=C(O)C2(O)C(=O)C3=C(O)c4c(O)cccc4C(C)(O)C3C(O)C12` (stereo not drawn) was tested, and the T/C (dose: 15.12 mg/kg/injection, schedule: Q01DX007 (ip), vehicle: carboxymethylcellulose (CMC)) was 98 % of control, the T/C (dose: 17.5 mg/kg/injection, schedule: Q01DX007 (ip), vehicle: carboxymethylcellulose (CMC)) was 111 % of control and the T/C (dose: 31.25 mg/kg/injection, schedule: Q01DX007 (ip), vehicle: carboxymethylcellulose (CMC)) was 124 % of control. For the same compound, the T/C (dose: 35.0 mg/kg/injection, schedule: Q01DX007 (ip), vehicle: carboxymethylcellulose (CMC)) was 105 % of control, the T/C (dose: 62.5 mg/kg/injection, schedule: Q01DX007 (ip), vehicle: carboxymethylcellulose (CMC)) was 117 % of control and the T/C (dose: 70.0 mg/kg/injection, schedule: Q01DX007 (ip), vehicle: carboxymethylcellulose (CMC)) was 102 % of control. For the same compound, the T/C [3] was 50 % of control and the T/C (dose: 140.0 mg/kg/injection, schedule: Q01DX007 (ip), vehicle: carboxymethylcellulose (CMC)) was 79 % of control.
